Patent US20240101546A1, “HETEROARYL-ACETYLENES, PHARMACEUTICAL COMPOSITIONS THEREOF, AND THEIR THERAPEUTIC APPLICATIONS” (Eubulus Biotherapeutics Inc., priority 2020, published 2024)

system: hepatocellular carcinoma cell line Hub-7; experiment: Cell proliferation assay, Hub-7 (CELL-TITER GLO); assay type: cell-based; details: Hub-7 cells, 24 h incubation, cell viability by CELL-TITER GLO, top concentration 10 μM; read-out: EC50, Inhibition of Hub-7 Cell Proliferation
Procedure, shortened: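 Hub-7 cells, 4,000 per well, seeded overnight, then exposed 24 h to compound from 10 μM top in 3-fold serial dilution. Viability read by CELL-TITER GLO luminescence; EC50 derived and binned into potency categories.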

Row | SMILES | EC50 [nM]
1 | C#Cc1nc(C(=O)N(C)CCc2ccc([N+](=O)[O-])cc2)cs1 [Compound C100, 2-Ethynyl-N-methyl-N-(4-nitrophenethyl)thiazole-4-carboxamide] | 200 to 1000
2 | C#Cc1nc(C(=O)NCCc2ccc(S(C)(=O)=O)cc2)cs1 [Compound C101, 2-Ethynyl-N-(4-(methylsulfonyl)phenethyl)thiazole-4-carboxamide] | > 5000
3 | C#Cc1nc(C(=O)NCCc2ccc(C#N)cc2)cs1 [Compound C102, N-(4-Cyanophenethyl)-2-ethynylthiazole-4-carboxamide] | 200 to 1000
4 | C#Cc1nc(C(=O)NCc2ccc([N+](=O)[O-])cc2)cs1 [Compound C103, 2-Ethynyl-N-(4-nitrobenzyl)thiazole-4-carboxamide] | ≤ 200
5 | C#Cc1nc(C(=O)NCc2ccc(C#N)cc2)cs1 [Compound C104, N-(4-Cyanobenzyl)-2-ethynylthiazole-4-carboxamide] | 200 to 1000
6 | C#Cc1nc(C(=O)NCCc2cccc(S(C)(=O)=O)c2)cs1 [Compound C105, 2-Ethynyl-N-(3-(methylsulfonyl)phenethyl)thiazole-4-carboxamide] | 1000 to 5000
7 | C#Cc1nc(C(=O)NCCc2ccccc2Cl)cs1 [Compound C106, N-(2-Chlorophenethyl)-2-ethynylthiazole-4-carboxamide] | 200 to 1000
8 | C#Cc1nc(C(=O)NCc2cccc([N+](=O)[O-])c2)cs1 [Compound C107, 2-Ethynyl-N-(3-nitrobenzyl)thiazole-4-carboxamide] | 200 to 1000
9 | C#Cc1nc(C(=O)NCc2ccc(S(C)(=O)=O)cc2)cs1 [Compound C108, 2-Ethynyl-N-(4-(methylsulfonyl)benzyl)thiazole-4-carboxamide] | 1000 to 5000
10 | C#Cc1nc(C(=O)NCc2ncccc2Cl)cs1 [Compound C109, N-((3-Chloropyridin-2-yl)methyl)-2-ethynylthiazole-4-carboxamide] | 1000 to 5000
11 | C#Cc1nc(C(=O)NCCc2cccc(Cl)c2)cs1 [Compound C110, N-(3-Chlorophenethyl)-2-ethynylthiazole-4-carboxamide] | 200 to 1000
12 | C#Cc1nc(C(=O)NCc2ccccc2)c[nH]1 [Compound C111, N-Benzyl-2-ethynyl-1H-imidazole-4-carboxamide] | > 5000
13 | C#Cc1nc(C(=O)NCc2ccccc2-c2ccccc2)cs1 [Compound C112, N-([1,1′-Biphenyl]-2-ylmethyl)-2-ethynylthiazole-4-carboxamide] | 200 to 1000
14 | C#Cc1nc(C(=O)NCc2cccc3ccccc23)cs1 [Compound C113, 2-Ethynyl-N-(naphthalen-1-ylmethyl)thiazole-4-carboxamide] | ≤ 200
15 | C#Cc1nc(C(=O)NCc2ccc(-c3ccccc3)cc2)cs1 [Compound C114, N-([1,1′-Biphenyl]-4-ylmethyl)-2-ethynylthiazole-4-carboxamide] | ≤ 200
16 | C#Cc1nc(C(=O)NCc2cccc(-c3ccccc3)c2)cs1 [Compound C115, N-([1,1′-Biphenyl]-3-ylmethyl)-2-ethynylthiazole-4-carboxamide] | ≤ 200
17 | C#Cc1nc(C(=O)N(CCC(=O)OCC)Cc2ccccc2)cs1 [Compound C116, Ethyl 3-(N-benzyl-2-ethynylthiazole-4-carboxamido)propanoate] | 1000 to 5000
18 | C#Cc1nc(C(=O)NCc2ccc(C(=O)OC)cc2)cs1 [Compound C117, Methyl 4-((2-ethynylthiazole-4-carboxamido)methyl)benzoate] | 200 to 1000
19 | C#Cc1nc(C(=O)NCc2ccc(N)cc2)cs1 [Compound C118, N-(4-Aminobenzyl)-2-ethynylthiazole-4-carboxamide] | 200 to 1000
20 | C#Cc1nc(C(=O)NCc2ccn(C)n2)cs1 [Compound C119, 2-Ethynyl-N-((1-methyl-1H-pyrazol-3-yl)methyl)thiazole-4-carboxamide] | > 5000
21 | C#Cc1nc(C(=O)NCc2cnn(C)c2)cs1 [Compound C120, 2-Ethynyl-N-((1-methyl-1H-pyrazol-4-yl)methyl)thiazole-4-carboxamide] | > 5000
22 | C#Cc1nc(C(=O)NCc2ccc(O)cc2)cs1 [Compound C121, 2-Ethynyl-N-(4-hydroxybenzyl)thiazole-4-carboxamide] | 1000 to 5000
23 | C#Cc1nc(C(=O)NCCc2ccc(O)c(OC)c2)cs1 [Compound C122, 2-Ethynyl-N-(4-hydroxy-3-methoxyphenethyl)thiazole-4-carboxamide] | 1000 to 5000
24 | C#Cc1nc(NC(=O)CCc2ccccc2)cs1 [Compound C123, N-(2-Ethynylthiazol-4-yl)-3-phenylpropanamide] | 200 to 1000
25 | C#Cc1nc(C(=O)NCc2cccc(C(=O)OC)c2)cs1 [Compound C124, Methyl 3-((2-ethynylthiazole-4-carboxamido)methyl)benzoate] | 200 to 1000
26 | C#Cc1nc(C(=O)NCc2cccc(Cl)c2)cs1 [Compound C125, N-(3-Chlorobenzyl)-2-ethynylthiazole-4-carboxamide] | ≤ 200

Row | SMILES | EC50 [nM]
27 | C#Cc1nc(C(=O)NCc2ccccn2)cs1 [Compound C126, 2-Ethynyl-N-(pyridin-2-ylmethyl)thiazole-4-carboxamide] | 1000 to 5000
28 | C#Cc1nc(C(=O)NCc2cccc(C#N)c2)cs1 [Compound C127, N-(3-Cyanobenzyl)-2-ethynylthiazole-4-carboxamide] | 200 to 1000
29 | C#Cc1nc(C(=O)NCCc2ccc(N)cc2)cs1 [Compound C128, N-(4-Aminophenethyl)-2-ethynylthiazole-4-carboxamide] | 1000 to 5000
30 | C#Cc1nc(C(=O)NCCc2ccc([N+](=O)[O-])cc2)cs1 [Compound C129, 2-Ethynyl-N-(4-nitrophenethyl)thiazole-4-carboxamide] | ≤ 200
31 | C#Cc1nc(C(=O)Nc2cccc3[nH]ncc23)cs1 [Compound C130, 2-Ethynyl-N-(1H-indazol-4-yl)thiazole-4-carboxamide] | 1000 to 5000
32 | C#Cc1nc(C(=O)N(CC(=O)OCC)Cc2ccccc2)cs1 [Compound C131, Ethyl N-benzyl-N-(2-ethynylthiazole-4-carbonyl)glycinate] | 1000 to 5000
33 | C#Cc1ncc(C(=O)NCc2ccccc2)n1C [Compound C132, N-Benzyl-2-ethynyl-1-methyl-1H-imidazole-5-carboxamide] | > 5000
34 | C#Cc1nc(C(=O)N(CCO)Cc2ccccc2)cs1 [Compound C133, N-Benzyl-2-ethynyl-N-(2-hydroxyethyl)thiazole-4-carboxamide] | 1000 to 5000
35 | C#Cc1nc(C(=O)Nc2cccc3cn[nH]c23)cs1 [Compound C134, 2-Ethynyl-N-(11H-indazol-7-yl)thiazole-4-carboxamide] | 1000 to 5000
36 | C#Cc1nc(C(=O)NC[C@@H](O)c2ccccc2)cs1 [Compound C135, (S)-2-Ethynyl-N-(2-hydroxy-2-phenylethyl)thiazole-4-carboxamide] | 1000 to 5000
37 | C#Cc1nc(C(=O)NCc2ccccc2NC(C)=O)cs1 [Compound C136, N-(2-Acetamidobenzyl)-2-ethynylthiazole-4-carboxamide] | > 5000
38 | C#Cc1nc(C(=O)N(C)Cc2ccccc2)cs1 [Compound C137, N-Benzyl-2-ethynyl-N-methylthiazole-4-carboxamide] | 1000 to 5000
39 | C#Cc1nc(C(=O)NCCc2ccccc2)cs1 [Compound C138, 2-Ethynyl-N-phenethylthiazole-4-carboxamide] | 1000 to 5000
40 | C#Cc1nc(C(=O)NCc2cccc3[nH]ccc23)cs1 [Compound C139, N-((1H-Indol-4-yl)methyl)-2-ethynylthiazole-4-carboxamide] | > 5000
41 | C#Cc1nc(C(=O)NCc2ccccc2N)cs1 [Compound C140, N-(2-Aminobenzyl)-2-ethynylthiazole-4-carboxamide] | 1000 to 5000
42 | C#Cc1ncc(C(=O)NCc2ccccc2)s1 [Compound C141, N-Benzyl-2-ethynylthiazole-5-carboxamide] | 1000 to 5000
43 | C#Cc1nc(C(=O)NCc2ccccc2)co1 [Compound C142, N-Benzyl-2-ethynyloxazole-4-carboxamide] | > 5000
44 | C#Cc1nc(C(=O)NCc2ccccc2Cl)cs1 [Compound C143, N-(2-Chlorobenzyl)-2-ethynylthiazole-4-carboxamide] | 200 to 1000
45 | C#Cc1nc(C(=O)NCc2ccccc2OC)cs1 [Compound C144, 2-Ethynyl-N-(2-methoxybenzyl)thiazole-4-carboxamide] | 1000 to 5000
46 | C#Cc1csc(C(=O)NCc2ccccc2)n1 [Compound C145, N-Benzyl-4-ethynylthiazole-2-carboxamide] | > 5000
47 | C#Cc1nc(C(=O)NCc2ccccc2)cs1 [Compound C148, N-Benzyl-2-ethynylthiazole-4-carboxamide] | 1000 to 5000
48 | C#Cc1nc(C(=O)N2CCN(c3ccc(-c4c(C)ccc5c4cnn5C)cc3)CC2)cs1 [Compound D1, (4-(4-(1,5-Dimethyl-1H-indazol-4-yl)phenyl)piperazin-1-yl)(2-ethynylthiazol-4-yl)methanone] | ≤ 200
49 | C#Cc1nc(C(=O)N2CCN(c3ccc(-c4cc(C(=O)OC)cc5c4cnn5C)cc3)CC2)cs1 [Compound D2, Methyl 4-(4-(4-(2-ethynylthiazole-4-carbonyl)piperazin-1-yl)phenyl)-1-methyl-1H-indazole-6-carboxylate] | ≤ 200
50 | C#Cc1nc(C(=O)N2CCN(c3ccc(-c4cc(C(=O)NC)cc5ncsc45)cc3)CC2)cs1 [Compound D3, 7-(4-(4-(2-Ethynylthiazole-4-carbonyl)piperazin-1-yl)phenyl)-N-methylbenzo[d]thiazole-5-carboxamide] | 200 to 1000
51 | C#Cc1nc(C(=O)N2CCN(c3ccc(-c4cc(C(=O)OC)cc5ncsc45)cc3)CC2)cs1 [Compound D4, Methyl 7-(4-(4-(2-ethynylthiazole-4-carbonyl)piperazin-1-yl)phenyl)benzo[d]-thiazole-5-carboxylate] | ≤ 200
52 | C#Cc1nc(C(=O)N2CCN(c3ccc(-c4cc(C(N)=O)cc5ncsc45)cc3)CC2)cs1 [Compound D5, 7-(4-(4-(2-Ethynylthiazole-4-carbonyl)piperazin-1-yl)phenyl)benzo[d]thiazole-5-carboxamide] | 1000 to 5000
